Laboratory results published in the NIST ThermoML archive (doi:10.1021/je301283e).
Numbers after ± are expanded uncertainties.

Details: Liquid, Drop volume

## CCCCCCCCCCCCCCCC [hexadecane] + O=C=O
313.15 K, 340 kPa
  interfacial tension: 22.39 ± 0.27 mN/m
313.15 K, 690 kPa
  interfacial tension: 21.67 ± 0.27 mN/m
313.15 K, 1030 kPa
  interfacial tension: 20.89 ± 0.26 mN/m
313.15 K, 1380 kPa
  interfacial tension: 20.29 ± 0.26 mN/m
313.15 K, 1720 kPa
  interfacial tension: 19.42 ± 0.26 mN/m
313.15 K, 2070 kPa
  interfacial tension: 18.39 ± 0.26 mN/m
313.15 K, 2410 kPa
  interfacial tension: 17.81 ± 0.25 mN/m
313.15 K, 2760 kPa
  interfacial tension: 17.21 ± 0.25 mN/m
313.15 K, 3100 kPa
  interfacial tension: 16.29 ± 0.25 mN/m
313.15 K, 3450 kPa
  interfacial tension: 15.49 ± 0.25 mN/m
313.15 K, 3800 kPa
  interfacial tension: 14.85 ± 0.25 mN/m
313.15 K, 4140 kPa
  interfacial tension: 13.94 ± 0.25 mN/m
313.15 K, 4480 kPa
  interfacial tension: 13.36 ± 0.24 mN/m
313.15 K, 4830 kPa
  interfacial tension: 12.38 ± 0.24 mN/m
313.15 K, 5170 kPa
  interfacial tension: 11.9 ± 0.24 mN/m
313.15 K, 5510 kPa
  interfacial tension: 11.18 ± 0.24 mN/m
313.15 K, 5860 kPa
  interfacial tension: 10.46 ± 0.24 mN/m
313.15 K, 6200 kPa
  interfacial tension: 9.57 ± 0.24 mN/m
313.15 K, 6550 kPa
  interfacial tension: 8.63 ± 0.24 mN/m
313.15 K, 6890 kPa
  interfacial tension: 7.78 ± 0.23 mN/m
313.15 K, 7240 kPa
  interfacial tension: 7.22 ± 0.23 mN/m
313.15 K, 7580 kPa
  interfacial tension: 6.26 ± 0.23 mN/m
313.15 K, 7930 kPa
  interfacial tension: 5.48 ± 0.23 mN/m
313.15 K, 8270 kPa
  interfacial tension: 4.79 ± 0.23 mN/m
313.15 K, 8620 kPa
  interfacial tension: 4.24 ± 0.23 mN/m
313.15 K, 8960 kPa
  interfacial tension: 3.49 ± 0.23 mN/m
313.15 K, 9310 kPa
  interfacial tension: 2.7 ± 0.23 mN/m
333.15 K, 340 kPa
  interfacial tension: 20.59 ± 0.23 mN/m
333.15 K, 690 kPa
  interfacial tension: 20.1 ± 0.23 mN/m
333.15 K, 1030 kPa
  interfacial tension: 19.32 ± 0.23 mN/m
333.15 K, 1380 kPa
  interfacial tension: 18.89 ± 0.22 mN/m
333.15 K, 1720 kPa
  interfacial tension: 18.21 ± 0.22 mN/m
333.15 K, 2070 kPa
  interfacial tension: 17.8 ± 0.22 mN/m
333.15 K, 2410 kPa
  interfacial tension: 17.01 ± 0.22 mN/m
333.15 K, 2760 kPa
  interfacial tension: 16.38 ± 0.22 mN/m
333.15 K, 3100 kPa
  interfacial tension: 15.94 ± 0.22 mN/m
333.15 K, 3450 kPa
  interfacial tension: 15.36 ± 0.21 mN/m
333.15 K, 3800 kPa
  interfacial tension: 14.8 ± 0.21 mN/m
333.15 K, 4140 kPa
  interfacial tension: 14.23 ± 0.21 mN/m
333.15 K, 4480 kPa
  interfacial tension: 13.77 ± 0.21 mN/m
333.15 K, 4830 kPa
  interfacial tension: 12.89 ± 0.21 mN/m
333.15 K, 5170 kPa
  interfacial tension: 12.49 ± 0.21 mN/m
333.15 K, 5510 kPa
  interfacial tension: 11.68 ± 0.21 mN/m
333.15 K, 5860 kPa
  interfacial tension: 11.11 ± 0.2 mN/m
333.15 K, 6200 kPa
  interfacial tension: 10.36 ± 0.2 mN/m
333.15 K, 6550 kPa
  interfacial tension: 9.68 ± 0.2 mN/m
333.15 K, 6890 kPa
  interfacial tension: 9.16 ± 0.2 mN/m
333.15 K, 7240 kPa
  interfacial tension: 8.82 ± 0.2 mN/m
333.15 K, 7580 kPa
  interfacial tension: 8.16 ± 0.2 mN/m
333.15 K, 7930 kPa
  interfacial tension: 7.52 ± 0.2 mN/m
333.15 K, 8270 kPa
  interfacial tension: 6.86 ± 0.2 mN/m
333.15 K, 8620 kPa
  interfacial tension: 6.32 ± 0.19 mN/m
333.15 K, 8960 kPa
  interfacial tension: 5.81 ± 0.19 mN/m
333.15 K, 9310 kPa
  interfacial tension: 5.19 ± 0.19 mN/m
333.15 K, 9650 kPa
  interfacial tension: 4.57 ± 0.19 mN/m
333.15 K, 10000 kPa
  interfacial tension: 4 ± 0.19 mN/m
333.15 K, 10340 kPa
  interfacial tension: 3.45 ± 0.19 mN/m
333.15 K, 10690 kPa
  interfacial tension: 2.94 ± 0.19 mN/m
333.15 K, 11030 kPa
  interfacial tension: 2.38 ± 0.19 mN/m
353.15 K, 340 kPa
  interfacial tension: 19.15 ± 0.19 mN/m
353.15 K, 690 kPa
  interfacial tension: 18.65 ± 0.19 mN/m
353.15 K, 1030 kPa
  interfacial tension: 18.15 ± 0.19 mN/m
353.15 K, 1380 kPa
  interfacial tension: 17.69 ± 0.19 mN/m
353.15 K, 1720 kPa
  interfacial tension: 17.21 ± 0.19 mN/m
353.15 K, 2070 kPa
  interfacial tension: 16.74 ± 0.19 mN/m
353.15 K, 2410 kPa
  interfacial tension: 16.21 ± 0.18 mN/m
353.15 K, 2760 kPa
  interfacial tension: 15.71 ± 0.18 mN/m
353.15 K, 3100 kPa
  interfacial tension: 15.31 ± 0.18 mN/m
353.15 K, 3450 kPa
  interfacial tension: 14.82 ± 0.18 mN/m
353.15 K, 3800 kPa
  interfacial tension: 14.37 ± 0.18 mN/m
353.15 K, 4140 kPa
  interfacial tension: 13.88 ± 0.18 mN/m
353.15 K, 4480 kPa
  interfacial tension: 13.31 ± 0.18 mN/m
353.15 K, 4830 kPa
  interfacial tension: 12.89 ± 0.17 mN/m
353.15 K, 5170 kPa
  interfacial tension: 12.44 ± 0.17 mN/m
353.15 K, 5510 kPa
  interfacial tension: 11.81 ± 0.17 mN/m
353.15 K, 5860 kPa
  interfacial tension: 11.48 ± 0.17 mN/m
353.15 K, 6200 kPa
  interfacial tension: 11.15 ± 0.17 mN/m
353.15 K, 6550 kPa
  interfacial tension: 10.74 ± 0.17 mN/m
353.15 K, 6890 kPa
  interfacial tension: 10.05 ± 0.17 mN/m
353.15 K, 7240 kPa
  interfacial tension: 9.74 ± 0.17 mN/m
353.15 K, 7580 kPa
  interfacial tension: 9.44 ± 0.17 mN/m
353.15 K, 7930 kPa
  interfacial tension: 8.98 ± 0.16 mN/m
353.15 K, 8270 kPa
  interfacial tension: 8.35 ± 0.16 mN/m
353.15 K, 8620 kPa
  interfacial tension: 7.67 ± 0.16 mN/m
353.15 K, 8960 kPa
  interfacial tension: 7.42 ± 0.16 mN/m
353.15 K, 9310 kPa
  interfacial tension: 6.95 ± 0.16 mN/m
353.15 K, 9650 kPa
  interfacial tension: 6.06 ± 0.16 mN/m
353.15 K, 10000 kPa
  interfacial tension: 5.78 ± 0.16 mN/m
353.15 K, 10340 kPa
  interfacial tension: 5.11 ± 0.16 mN/m
353.15 K, 10690 kPa
  interfacial tension: 4.84 ± 0.16 mN/m
353.15 K, 11030 kPa
  interfacial tension: 4.48 ± 0.15 mN/m
353.15 K, 11380 kPa
  interfacial tension: 4.04 ± 0.15 mN/m
373.15 K, 340 kPa
  interfacial tension: 17.84 ± 0.18 mN/m
373.15 K, 690 kPa
  interfacial tension: 17.27 ± 0.17 mN/m
373.15 K, 1030 kPa
  interfacial tension: 16.85 ± 0.17 mN/m
373.15 K, 1380 kPa
  interfacial tension: 16.47 ± 0.17 mN/m
373.15 K, 1720 kPa
  interfacial tension: 15.99 ± 0.17 mN/m
373.15 K, 2070 kPa
  interfacial tension: 15.67 ± 0.17 mN/m
373.15 K, 2410 kPa
  interfacial tension: 15.29 ± 0.17 mN/m
373.15 K, 2760 kPa
  interfacial tension: 14.94 ± 0.17 mN/m
373.15 K, 3100 kPa
  interfacial tension: 14.48 ± 0.16 mN/m
373.15 K, 3450 kPa
  interfacial tension: 14.21 ± 0.16 mN/m
373.15 K, 3800 kPa
  interfacial tension: 13.89 ± 0.16 mN/m
373.15 K, 4140 kPa
  interfacial tension: 13.49 ± 0.16 mN/m
373.15 K, 4480 kPa
  interfacial tension: 13 ± 0.16 mN/m
373.15 K, 4830 kPa
  interfacial tension: 12.58 ± 0.16 mN/m
373.15 K, 5170 kPa
  interfacial tension: 12.15 ± 0.16 mN/m
373.15 K, 5510 kPa
  interfacial tension: 11.89 ± 0.16 mN/m
373.15 K, 5860 kPa
  interfacial tension: 11.47 ± 0.15 mN/m
373.15 K, 6200 kPa
  interfacial tension: 11.11 ± 0.15 mN/m
373.15 K, 6550 kPa
  interfacial tension: 10.79 ± 0.15 mN/m
373.15 K, 6890 kPa
  interfacial tension: 10.28 ± 0.15 mN/m
373.15 K, 7240 kPa
  interfacial tension: 9.9 ± 0.15 mN/m
373.15 K, 7580 kPa
  interfacial tension: 9.57 ± 0.15 mN/m
373.15 K, 7930 kPa
  interfacial tension: 9.35 ± 0.15 mN/m
373.15 K, 8270 kPa
  interfacial tension: 8.84 ± 0.15 mN/m
373.15 K, 8620 kPa
  interfacial tension: 8.27 ± 0.15 mN/m
373.15 K, 8960 kPa
  interfacial tension: 7.87 ± 0.14 mN/m
373.15 K, 9310 kPa
  interfacial tension: 7.65 ± 0.14 mN/m
373.15 K, 9650 kPa
  interfacial tension: 7.15 ± 0.14 mN/m
373.15 K, 10000 kPa
  interfacial tension: 6.74 ± 0.14 mN/m
373.15 K, 10340 kPa
  interfacial tension: 6.41 ± 0.14 mN/m
373.15 K, 10690 kPa
  interfacial tension: 6.16 ± 0.14 mN/m
373.15 K, 11030 kPa
  interfacial tension: 5.64 ± 0.14 mN/m
373.15 K, 11380 kPa
  interfacial tension: 5.28 ± 0.14 mN/m
393.15 K, 340 kPa
  interfacial tension: 16.46 ± 0.15 mN/m
393.15 K, 690 kPa
  interfacial tension: 16.12 ± 0.14 mN/m
393.15 K, 1030 kPa
  interfacial tension: 15.79 ± 0.14 mN/m
393.15 K, 1380 kPa
  interfacial tension: 15.54 ± 0.14 mN/m
393.15 K, 1720 kPa
  interfacial tension: 15.11 ± 0.14 mN/m
393.15 K, 2070 kPa
  interfacial tension: 14.81 ± 0.14 mN/m
393.15 K, 2410 kPa
  interfacial tension: 14.49 ± 0.14 mN/m
393.15 K, 2760 kPa
  interfacial tension: 14.18 ± 0.14 mN/m
393.15 K, 3100 kPa
  interfacial tension: 13.77 ± 0.13 mN/m
393.15 K, 3450 kPa
  interfacial tension: 13.52 ± 0.13 mN/m
393.15 K, 3800 kPa
  interfacial tension: 13.2 ± 0.13 mN/m
393.15 K, 4140 kPa
  interfacial tension: 12.84 ± 0.13 mN/m
393.15 K, 4480 kPa
  interfacial tension: 12.59 ± 0.13 mN/m
393.15 K, 4830 kPa
  interfacial tension: 12.3 ± 0.13 mN/m
393.15 K, 5170 kPa
  interfacial tension: 12.06 ± 0.13 mN/m
393.15 K, 5510 kPa
  interfacial tension: 11.63 ± 0.13 mN/m
393.15 K, 5860 kPa
  interfacial tension: 11.41 ± 0.13 mN/m
393.15 K, 6200 kPa
  interfacial tension: 11.18 ± 0.12 mN/m
393.15 K, 6550 kPa
  interfacial tension: 10.81 ± 0.12 mN/m
393.15 K, 6890 kPa
  interfacial tension: 10.56 ± 0.12 mN/m
393.15 K, 7240 kPa
  interfacial tension: 10.19 ± 0.12 mN/m
393.15 K, 7580 kPa
  interfacial tension: 9.82 ± 0.12 mN/m
393.15 K, 7930 kPa
  interfacial tension: 9.52 ± 0.12 mN/m
393.15 K, 8270 kPa
  interfacial tension: 9.23 ± 0.12 mN/m
393.15 K, 8620 kPa
  interfacial tension: 8.84 ± 0.12 mN/m
393.15 K, 8960 kPa
  interfacial tension: 8.58 ± 0.12 mN/m
393.15 K, 9310 kPa
  interfacial tension: 8.16 ± 0.11 mN/m
393.15 K, 9650 kPa
  interfacial tension: 7.92 ± 0.11 mN/m
393.15 K, 10000 kPa
  interfacial tension: 7.61 ± 0.11 mN/m
393.15 K, 10340 kPa
  interfacial tension: 7.27 ± 0.11 mN/m
393.15 K, 10690 kPa
  interfacial tension: 6.99 ± 0.11 mN/m
393.15 K, 11030 kPa
  interfacial tension: 6.75 ± 0.11 mN/m
393.15 K, 11380 kPa
  interfacial tension: 6.42 ± 0.11 mN/m
